Article PMC5218480 (PLoS ONE, 2017)

Tested on: MV-4-11 cells
Experiment: Gene expression microarray analysis (Affymetrix PrimeView) and GSEA
Assay type: cell-based, human
Parameters: RFU PODN (11730768_x_at) / Fold change /veh PODN (11730768_x_at) / RFU LINC00158 (11744669_a_at) / Fold change /veh LINC00158 (11744669_a_at) / RFU DUSP10 (11751237_a_at) / Fold change /veh DUSP10 (11751237_a_at) / RFU ID3 (11757404_x_at) / Fold change /veh ID3 (11757404_x_at) / RFU PLEKHG5 (11737974_s_at) / Fold change /veh PLEKHG5 (11737974_s_at) / RFU LRRC4B (11730491_at) / Fold change /veh LRRC4B (11730491_at) / RFU GIMAP4 (11747438_a_at) / Fold change /veh GIMAP4 (11747438_a_at) / RFU KRT8 (11758183_x_at) / Fold change /veh KRT8 (11758183_x_at) / RFU CNN1 (11734310_a_at) / Fold change /veh CNN1 (11734310_a_at) / RFU VPS37D (11726825_at) / Fold change /veh VPS37D (11726825_at) / RFU C10orf10 (11716522_x_at) / Fold change /veh C10orf10 (11716522_x_at) / RFU KIR2DL2 /// KIR2DL4 /// KIR2DL5A /// KIR2DL5B /// KIR2DS1 /// KIR2DS2 /// KIR2DS3 /// KIR2DS4 /// KIR3DL3 /// KIR3DL3 /// KIR3DS1 (11738374_at) / Fold change /veh KIR2DL2 /// KIR2DL4 /// KIR2DL5A /// KIR2DL5B /// KIR2DS1 /// KIR2DS2 /// KIR2DS3 /// KIR2DS4 /// KIR3DL3 /// KIR3DL3 /// KIR3DS1 (11738374_at) / RFU C1QL1 (11718748_at) / Fold change /veh C1QL1 (11718748_at) / RFU TMPRSS4 (11747572_a_at) / Fold change /veh TMPRSS4 (11747572_a_at) / RFU HAMP (11756126_x_at) / Fold change /veh HAMP (11756126_x_at) / RFU RNFT2 (11725882_a_at) / Fold change /veh RNFT2 (11725882_a_at) / RFU NR4A2 (11747474_a_at) / Fold change /veh NR4A2 (11747474_a_at) / RFU ABCC12 (11746883_a_at) / Fold change /veh ABCC12 (11746883_a_at) / RFU TMEM136 (11760407_x_at) / Fold change /veh TMEM136 (11760407_x_at) / RFU CLDN22 /// WWC2 (11732394_at) / Fold change /veh CLDN22 /// WWC2 (11732394_at) / RFU HLA-DPB1 (11760878_x_at) / Fold change /veh HLA-DPB1 (11760878_x_at) / RFU SPINT1 (11716480_a_at) / Fold change /veh SPINT1 (11716480_a_at) / RFU GAP43 (11754022_s_at) / Fold change /veh GAP43 (11754022_s_at) / RFU A4GNT (11735810_at) / Fold change /veh A4GNT (11735810_at) / RFU PRB3 (11715151_x_at) / Fold change /veh PRB3 (11715151_x_at) / RFU TUBB4B (11761932_at) / Fold change /veh TUBB4B (11761932_at) / RFU CAPN14 (11732068_a_at) / Fold change /veh CAPN14 (11732068_a_at) / RFU TMCC2 (11721928_a_at) / Fold change /veh TMCC2 (11721928_a_at) / RFU IRGQ (11745062_a_at) / Fold change /veh IRGQ (11745062_a_at) / RFU FAM174B (11720279_a_at) / Fold change /veh FAM174B (11720279_a_at) / RFU TMPRSS4 (11748680_a_at) / Fold change /veh TMPRSS4 (11748680_a_at) / RFU FAM212B (11763350_a_at) / Fold change /veh FAM212B (11763350_a_at) / RFU PLEKHG5 (11743358_a_at) / Fold change /veh PLEKHG5 (11743358_a_at) / RFU ZSCAN30 (11745921_a_at) / Fold change /veh ZSCAN30 (11745921_a_at) / RFU CMKLR1 (11741424_a_at) / Fold change /veh CMKLR1 (11741424_a_at) / RFU LOC101060620 /// MAPK8IP1 (11723275_at) / Fold change /veh LOC101060620 /// MAPK8IP1 (11723275_at) / RFU SPTSSB (11747773_x_at) / Fold change /veh SPTSSB (11747773_x_at) / RFU PRSS12 (11739890_at) / Fold change /veh PRSS12 (11739890_at) / RFU BIN1 (11741810_x_at) / Fold change /veh BIN1 (11741810_x_at) / RFU WNT11 (11732464_a_at) / Fold change /veh WNT11 (11732464_a_at) / RFU C10orf10 (11716521_a_at) / Fold change /veh C10orf10 (11716521_a_at) / RFU C5orf56 (11738089_at) / Fold change /veh C5orf56 (11738089_at) / RFU CYB561 (11721691_x_at) / Fold change /veh CYB561 (11721691_x_at) / RFU ANKRD19P (11752326_a_at) / Fold change /veh ANKRD19P (11752326_a_at) / RFU OR2T12 /// OR2T33 /// OR2T8 (11738714_s_at) / Fold change /veh OR2T12 /// OR2T33 /// OR2T8 (11738714_s_at) / RFU VCAN (11748164_a_at) / Fold change /veh VCAN (11748164_a_at) / RFU JSRP1 (11732532_at) / Fold change /veh JSRP1 (11732532_at) / RFU KRTAP10-11 (11738290_x_at) / Fold change /veh KRTAP10-11 (11738290_x_at) / RFU MYO3A (11730013_a_at) / Fold change /veh MYO3A (11730013_a_at) / RFU EBF3 (11725865_a_at) / Fold change /veh EBF3 (11725865_a_at) / RFU CAMK2N1 (11719241_x_at) / Fold change /veh CAMK2N1 (11719241_x_at) / RFU C5orf56 (11738088_a_at) / Fold change /veh C5orf56 (11738088_a_at) / RFU OLFML3 (11715873_a_at) / Fold change /veh OLFML3 (11715873_a_at) / RFU LOC100653217 /// NTM (11731650_a_at) / Fold change /veh LOC100653217 /// NTM (11731650_a_at) / RFU MAPK11 (11762145_a_at) / Fold change /veh MAPK11 (11762145_a_at) / RFU FIZ1 (11724087_x_at) / Fold change /veh FIZ1 (11724087_x_at) / RFU OASL (11726364_x_at) / Fold change /veh OASL (11726364_x_at) / RFU SOX15 (11748057_x_at) / Fold change /veh SOX15 (11748057_x_at) / RFU CD79A (11719716_a_at) / Fold change /veh CD79A (11719716_a_at) / RFU HIST1H1D (11736915_at) / Fold change /veh HIST1H1D (11736915_at) / RFU CASKIN2 (11723855_a_at) / Fold change /veh CASKIN2 (11723855_a_at) / RFU LOC730098 (11760151_x_at) / Fold change /veh LOC730098 (11760151_x_at) / RFU OR4N2 (11742367_at) / Fold change /veh OR4N2 (11742367_at) / RFU PRRT2 (11749266_a_at) / Fold change /veh PRRT2 (11749266_a_at) / RFU SNX32 (11753110_a_at) / Fold change /veh SNX32 (11753110_a_at) / RFU CDHR5 (11726645_a_at) / Fold change /veh CDHR5 (11726645_a_at) / RFU RCAN1 (11760418_a_at) / Fold change /veh RCAN1 (11760418_a_at) / RFU FAM167A (11723789_a_at) / Fold change /veh FAM167A (11723789_a_at) / RFU FAM26E (11764081_at) / Fold change /veh FAM26E (11764081_at) / RFU ISYNA1 (11749810_s_at) / Fold change /veh ISYNA1 (11749810_s_at) / RFU ACY1 (11761880_at) / Fold change /veh ACY1 (11761880_at) / RFU 11764098_at / Fold change /veh 11764098_at / RFU SAMD14 (11745864_x_at) / Fold change /veh SAMD14 (11745864_x_at) / RFU NPB (11741838_a_at) / Fold change /veh NPB (11741838_a_at) / RFU TMPRSS6 (11731388_a_at) / Fold change /veh TMPRSS6 (11731388_a_at) / RFU KRTAP10-2 (11738614_at) / Fold change /veh KRTAP10-2 (11738614_at) / RFU ARHGAP8 /// PRR5-ARHGAP8 (11727945_x_at) / Fold change /veh ARHGAP8 /// PRR5-ARHGAP8 (11727945_x_at) / RFU KRTAP5-7 /// NADSYN1 (11734609_at) / Fold change /veh KRTAP5-7 /// NADSYN1 (11734609_at) / RFU RASL12 (11751679_a_at) / Fold change /veh RASL12 (11751679_a_at) / RFU CDKN2B (11736163_a_at) / Fold change /veh CDKN2B (11736163_a_at) / RFU PRF1 (11729649_at) / Fold change /veh PRF1 (11729649_at) / RFU, ZNF638 /// ZNF638-IT1 / Fold change vs veh, ZNF638 /// ZNF638-IT1 / RFU, PANK3 / Fold change vs veh, PANK3 / RFU, SH3YL1 / Fold change vs veh, SH3YL1 / RFU, ZEB2 / Fold change vs veh, ZEB2 / RFU, NRIP1 / Fold change vs veh, NRIP1 / RFU, PTTG1IP / Fold change vs veh, PTTG1IP / RFU, CAPN2 / Fold change vs veh, CAPN2 / RFU, MED14 / Fold change vs veh, MED14 / RFU, SNORA58 / Fold change vs veh, SNORA58 / RFU, C1orf63 / Fold change vs veh, C1orf63 / RFU, LRRFIP1 / Fold change vs veh, LRRFIP1 / RFU, NDUFAF7 / Fold change vs veh, NDUFAF7 / RFU, SLC12A2 / Fold change vs veh, SLC12A2 / RFU, IBTK / Fold change vs veh, IBTK / RFU, ESF1 / Fold change vs veh, ESF1 / Fold change vs veh, TMEM50B / RFU, TAOK1 / Fold change vs veh, TAOK1 / RFU, ACBD3 / Fold change vs veh, ACBD3 / RFU, TMA16 / Fold change vs veh, TMA16 / RFU, RWDD3 / Fold change vs veh, RWDD3 / RFU, BCAT1 / Fold change vs veh, BCAT1 / RFU, EDEM3 / Fold change vs veh, EDEM3 / RFU, TMEM33 / Fold change vs veh, TMEM33 / RFU, WDR75 / Fold change vs veh, WDR75 / RFU, AHCTF1 / Fold change vs veh, AHCTF1 / RFU, TFRC / Fold change vs veh, TFRC / RFU, ZDHHC17 / Fold change vs veh, ZDHHC17 / RFU, NOM1 / Fold change vs veh, NOM1 / RFU, ARL8B / Fold change vs veh, ARL8B / RFU, ZBTB11 / Fold change vs veh, ZBTB11 / RFU, TAMM41 / Fold change vs veh, TAMM41 / RFU, KIAA1704 /// LOC100996395 / Fold change vs veh, KIAA1704 /// LOC100996395 / RFU, ING1 / Fold change vs veh, ING1 / RFU, TRMT61B / Fold change vs veh, TRMT61B / RFU, FUBP3 / Fold change vs veh, FUBP3 / RFU, TP53 / Fold change vs veh, TP53 / RFU, TNKS2 / Fold change vs veh, TNKS2 / RFU, ZFP14 / Fold change vs veh, ZFP14 / RFU, ACTR2 / Fold change vs veh, ACTR2 / RFU, PPP3R1 / Fold change vs veh, PPP3R1 / RFU, PIK3R1 / Fold change vs veh, PIK3R1 / RFU, HNRNPA1 / Fold change vs veh, HNRNPA1 / RFU, RNF170 / Fold change vs veh, RNF170 / RFU, ZNF28 / Fold change vs veh, ZNF28 / RFU, RNGTT / Fold change vs veh, RNGTT / RFU, OGT / Fold change vs veh, OGT / RFU, BRD1 / Fold change vs veh, BRD1 / RFU, MARS / Fold change vs veh, MARS / RFU, ZNF655 / Fold change vs veh, ZNF655 / RFU, FAHD1 / Fold change vs veh, FAHD1 / RFU, BDP1 / Fold change vs veh, BDP1 / RFU, LRRCC1 / Fold change vs veh, LRRCC1 / RFU, ARID1A / Fold change vs veh, ARID1A / RFU, ZNF146 / Fold change vs veh, ZNF146 / RFU, ZNF330 / Fold change vs veh, ZNF330 / RFU, GPN3 / Fold change vs veh, GPN3 / RFU, C9orf123 / Fold change vs veh, C9orf123 / RFU, N4BP2L2 / Fold change vs veh, N4BP2L2 / RFU, ARFIP1 / Fold change vs veh, ARFIP1 / RFU, FAM179B / Fold change vs veh, FAM179B / RFU, BCL10 / Fold change vs veh, BCL10 / RFU, UHRF1BP1L / Fold change vs veh, UHRF1BP1L / RFU, BET1 / Fold change vs veh, BET1 / RFU, CNOT2 / Fold change vs veh, CNOT2 / RFU, ZNF268 / Fold change vs veh, ZNF268 / Fold change vs veh, ZNF507 / RFU, DGCR2 / Fold change vs veh, DGCR2 / RFU, WDSUB1 / Fold change vs veh, WDSUB1 / Fold change vs veh, HSP90B1 /// MIR3652 / RFU, ADSS / Fold change vs veh, ADSS / RFU, GK / Fold change vs veh, GK / RFU, ZNF148 / Fold change vs veh, ZNF148 / RFU, TAF9 / Fold change vs veh, TAF9 / RFU, SLC1A5 / Fold change vs veh, SLC1A5 / RFU, SLMO2 / Fold change vs veh, SLMO2 / RFU, ABCC4 / Fold change vs veh, ABCC4 / RFU, LOC101060439 /// RAP1B / Fold change vs veh, LOC101060439 /// RAP1B / RFU, RFX7 / Fold change vs veh, RFX7 / RFU, GTPBP10 / Fold change vs veh, GTPBP10 / RFU, CNEP1R1 / Fold change vs veh, CNEP1R1 / RFU, BIVM-ERCC5 /// ERCC5 / Fold change vs veh, BIVM-ERCC5 /// ERCC5 / RFU, ILF3 / Fold change vs veh, ILF3 / RFU 11762660_at / Fold change /veh 11762660_at / RFU VCAN (11757783_s_at) / Fold change /veh VCAN (11757783_s_at) / RFU DDX43 (11728927_at) / Fold change /veh DDX43 (11728927_at) / RFU KRT8 (11758188_x_at) / Fold change /veh KRT8 (11758188_x_at) / RFU NKD1 (11759106_at) / Fold change /veh NKD1 (11759106_at) / RFU SRD5A1 (11742802_a_at) / Fold change /veh SRD5A1 (11742802_a_at) / RFU TPSAB1 /// TPSB2 (11721975_s_at) / Fold change /veh TPSAB1 /// TPSB2 (11721975_s_at) / RFU GSTM3 (11746129_a_at) / Fold change /veh GSTM3 (11746129_a_at) / RFU IL23R (11737362_x_at) / Fold change /veh IL23R (11737362_x_at) / RFU TMEM51 (11727254_a_at) / Fold change /veh TMEM51 (11727254_a_at) / RFU PIWIL2 (11732686_x_at) / Fold change /veh PIWIL2 (11732686_x_at) / RFU ORM1 (11744905_x_at) / Fold change /veh ORM1 (11744905_x_at) / RFU CCDC152 (11743942_at) / Fold change /veh CCDC152 (11743942_at) / RFU ECM1 (11717891_a_at) / Fold change /veh ECM1 (11717891_a_at) / RFU IL23R (11748794_a_at) / Fold change /veh IL23R (11748794_a_at) / RFU TNFAIP8L3 (11732012_x_at) / Fold change /veh TNFAIP8L3 (11732012_x_at) / RFU MBOAT4 (11741988_at) / Fold change /veh MBOAT4 (11741988_at) / RFU 11764193_at / Fold change /veh 11764193_at / RFU TMEM53 (11763286_at) / Fold change /veh TMEM53 (11763286_at) / RFU MAGEB2 (11727129_at) / Fold change /veh MAGEB2 (11727129_at) / RFU TMEM200A (11744735_a_at) / Fold change /veh TMEM200A (11744735_a_at) / RFU CCDC152 (11751479_a_at) / Fold change /veh CCDC152 (11751479_a_at) / RFU FAM211A (11726209_a_at) / Fold change /veh FAM211A (11726209_a_at) / RFU RGS16 (11746705_a_at) / Fold change /veh RGS16 (11746705_a_at) / RFU VCAN (11755009_s_at) / Fold change /veh VCAN (11755009_s_at) / RFU RHOB (11743442_s_at) / Fold change /veh RHOB (11743442_s_at) / RFU RGS16 (11720943_a_at) / Fold change /veh RGS16 (11720943_a_at) / RFU RGS16 (11720944_at) / Fold change /veh RGS16 (11720944_at) / RFU, VPS4B / Fold change vs veh, VPS4B / RFU, CREB1 / Fold change vs veh, CREB1 / RFU, DNAJC13 / Fold change vs veh, DNAJC13 / RFU, GNAQ / Fold change vs veh, GNAQ / RFU, CDK5R1 / Fold change vs veh, CDK5R1 / RFU, ZRANB3 / Fold change vs veh, ZRANB3 / RFU, CUL4A / Fold change vs veh, CUL4A / RFU, CCNY / Fold change vs veh, CCNY / RFU, UFL1 / Fold change vs veh, UFL1 / RFU, COG3 / Fold change vs veh, COG3 / RFU, DIAPH2 / Fold change vs veh, DIAPH2 / RFU, SKA2 / Fold change vs veh, SKA2 / RFU, AFF3 / Fold change vs veh, AFF3 / RFU, LMF1 / Fold change vs veh, LMF1 / RFU, IPO11 / Fold change vs veh, IPO11 / RFU, DFFB / Fold change vs veh, DFFB / RFU, FOXP1 / Fold change vs veh, FOXP1 / RFU, CARD8 / Fold change vs veh, CARD8 / RFU, STRN3 / Fold change vs veh, STRN3 / RFU, ADK / Fold change vs veh, ADK / RFU, RASSF2 / Fold change vs veh, RASSF2 / RFU, WIPF1 / Fold change vs veh, WIPF1 / RFU, LARP1B / Fold change vs veh, LARP1B / RFU, RASA1 / Fold change vs veh, RASA1 / RFU, RB1 / Fold change vs veh, RB1 / RFU, PPFIA1 / Fold change vs veh, PPFIA1 / RFU, MAT2A / Fold change vs veh, MAT2A / RFU, CCT5 / Fold change vs veh, CCT5 / RFU, WDR92 / Fold change vs veh, WDR92 / RFU, CUX1 / Fold change vs veh, CUX1 / RFU, TTC7A / Fold change vs veh, TTC7A / RFU, TMEM135 / Fold change vs veh, TMEM135 / RFU, DEPTOR / Fold change vs veh, DEPTOR / RFU, CPM / Fold change vs veh, CPM / RFU, DNAJB6 / Fold change vs veh, DNAJB6 / RFU, CACNA2D3 / Fold change vs veh, CACNA2D3 / RFU, DTX4 / Fold change vs veh, DTX4 / RFU, TFCP2 / Fold change vs veh, TFCP2 / RFU, GMCL1 /// GMCL1P1 / Fold change vs veh, GMCL1 /// GMCL1P1 / RFU, AEBP2 / Fold change vs veh, AEBP2 / RFU, SNHG1 /// SNORD22 /// SNORD25 /// SNORD26 /// SNORD27 /// SNORD28 /// SNORD29 /// SNORD31 / Fold change vs veh, SNHG1 /// SNORD22 /// SNORD25 /// SNORD26 /// SNORD27 /// SNORD28 /// SNORD29 /// SNORD31 / Fold change (Aza/veh), C12orf56 (ProbeSet 11735607_a_at) / Fold change (ACY-1035/veh), C12orf56 (ProbeSet 11735607_a_at) / Fold change (Aza/veh), FGFR1OP (ProbeSet 11751329_s_at) / Fold change (ACY-1035/veh), FGFR1OP (ProbeSet 11751329_s_at) / Fold change (Aza/veh), VPS36 (ProbeSet 11739960_a_at) / Fold change (ACY-1035/veh), VPS36 (ProbeSet 11739960_a_at) / RFU SYPL1 (11715823_x_at) / Fold change /veh SYPL1 (11715823_x_at) / RFU IGFBP7 (11715501_s_at) / Fold change /veh IGFBP7 (11715501_s_at) / RFU REEP3 (11722064_at) / Fold change /veh REEP3 (11722064_at) / RFU IGLL1 (11728026_x_at) / Fold change /veh IGLL1 (11728026_x_at): dose or concentration left out as unconfirmed
Details: ProbeSet 11728314_at; LIST B

SMILES: Nc1ccc(-c2cccs2)cc1NC(=O)c1ccc2c(c1)cc(C1CC1)n2CCN1CCOCC1 [ACY-1035]
- RFU, ZNF148: 188.07 RFU
